Measured values from US7029879B1, “Iodine uptake restoration in thyroid cancer” (University of Kentucky Research Foundation, priority 1999, dated 2006).

How the values were obtained:
[1] = test system: thyroid peroxidase (TPO) mRNA; assay: Thyroid peroxidase (TPO) mRNA RT-PCR after polyamine synthesis inhibition; format: cell-based, human; settings: NPA'87 and KAK-1; minimal basal expression; every dosage
Description: (§1) hNIS transcriptional failure in thyroid carcinoma could be consequent to methylation of DNA in critical regulatory regions and could be reversed by inhibition of DNA-methyltransferase. Restoration of hNIS gene expression and activity from direct DNA-methyltransferase inhibition by 5-azacytidine has been shown. […] Since dcSAM is consumed by synthesis of polyamines (putrescine, spermidine, spermine) and its synthetic enzyme (adenosylmethionine decarboxylase) is stimulated by polyamine depletion, blockade of polyamine synthesis precipitously increases dcSAM levels. This should block DNA-methyltransferase activity and restore lost hNIS expression in dedifferentiated thyroid carcinomas. To assess this, human thyroid cell lines (NPA'87, papillary carcinoma, & KAK-1, follicular adenoma) without basal expression of hNIS or thyroglobulin (TG) mRNAs, were grown as monolayers in phenol red-free RPMI 1640 with 10% fetal bovine serum. […] Parallel cultures were assessed for Na[^125I] uptake (RAIU) in serum-free buffer, subtracting ^125I counts in buffer with choline (100 mM) to correct for non-specific counts and results normalized for cell density in each condition using thiazolyl blue (MTT) assays. […]

thyroglobulin (TG) mRNA = assay: Thyroglobulin (TG) mRNA RT-PCR after polyamine synthesis inhibition; format: cell-based, human; settings: NPA'87 and KAK-1; DFMO 1 or 3 mM, AdoDATO 10 or 30 μM, 6 days; higher doses greater effect
Description: as §1

NPA'87 cells = assay: Na[125I] uptake (RAIU) after polyamine synthesis inhibition, NPA'87; format: cell-based, human; settings: DFMO at 3 mM
Description: as §1

hNIS mRNA = hNIS mRNA RT-PCR after polyamine synthesis inhibition; format: cell-based, human; settings: NPA'87 and KAK-1; DFMO 1 or 3 mM, AdoDATO 10 or 30 μM, 6 days; higher doses greater effect
Description: as §1

[2] = test system: dedifferentiated follicular and papillary thyroid cancers; settings: of 14 patients not concentrating any radioiodine in metastatic tumors at baseline; cited from earlier work
[3] = test system: UCLA RO 82 W-1 (WRO82) cells; settings: UCLA RO 82 W-1 (WRO82) follicular carcinoma cell line; cited from earlier work
KAK-1 cells = assay: Na[125I] uptake (RAIU) after polyamine synthesis inhibition, KAK-1; format: cell-based, human; settings: 30 μM AdoDATO
Description: as §1

[4] = test system: human thyroid cancer cell lines; settings: several human thyroid cancer cell lines in vitro; cited from earlier work

Row | Compound | TPO expression [1] | TG mRNA expression (thyroglobulin (TG) mRNA) | hNIS mRNA expression (hNIS mRNA) | also measured
1 | NCCCC(N)(C(=O)O)C(F)F (stereo not drawn) [DFMO, difluoromethylomithine] | enhancing expression at every dosage | restored | restored | increase in RAIU (NPA'87 cells): > 6 fold
2 | CC1=C(/C=C/C(C)=C/C=C/C(C)=C\C(=O)O)C(C)(C)CCC1 [13cis-retinoic acid] | – | – | – | additional patients gaining "weak" uptake [2]: three; patients re-establishing distinct iodide uptake after treatment [2]: one; iodide uptake activity [3]: nominal increase
3 | NCCCCC[S+](CCN)CC1OC(n2cnc3c(N)ncnc32)C(O)C1O (stereo not drawn) [AdoDATO, S-adenosyl-1,8-diamino-3-thio-octane] | enhancing expression at every dosage | restored | restored | increase in RAIU (KAK-1 cells): ~5 fold
4 | gamma interferon: cytokine suggested in the literature to minimally enhance iodide uptake in thyroid cancer cell lines | – | – | – | enhancement of iodide uptake [4]: minimal enhancement
